{"source": "patent US11866455B2", "about": "“Gold(III) complex, a conjugate of the gold(III) complex, a pharmaceutical composition comprising the gold(III) complex and uses and a process for preparing the gold(III) complex” (UNIVERSIDAD DE ALMERIA, priority 2018, dated 2024)", "key": {"[1]": {"test_system": "MRSA methicillin resistant S. aureus", "experiment": "Antibiofilm activity (MBIC) against MRSA", "format": "cell-based", "details": "Cli, Eri, Pen, Lvx"}, "[2]": {"test_system": "MRSA methicillin resistant S. aureus", "experiment": "Antimicrobial activity (MIC) against S. aureus / MRSA", "format": "cell-based", "details": "Staphylococcus aureus, Cli, Eri, Pen, Lvx"}, "[3]": {"experiment": "Stability studies by 1H and 31P NMR", "format": "physicochemical", "details": "for stability towards reducing agent (31P NMR): CD3CN/H2O", "procedure": "A solution of compound 2f in CD3CN (0.25 mL) was mixed with 0.25 mL of saline phosphate buffer (pH 7.4) in D2O and the mixture was monitored at 37° C. over three days through ^1H and ^31P NMR spectroscopy. […] Such observations show a substantial evidence for the stability of complexes 2 under physiological conditions.\nComplexes 2 are also stable in the conditions used for the biological activity assays, as evidenced by the ^31P NMR spectra of a solution of compound 2f in CD3CN (0.25 mL) and 0.25 mL of ISOsensitest culture broth prepared in D2O (FIG. 15).\nTo gain a more complete picture of the stability and the solution behavior of these gold(III) compounds 2, the spectral changes produced by addition of classical reducing agents, i.e. glutathione (GSH) and ascorbic acid (AsAc) were also examined. Thus, solutions of compound 2f in CD3CN (0.25 mL) were mixed with solutions containing equimolar amounts of either GSH or AsAc in 0.25 mL of H2O."}, "A. baumannii": {"test_system": "A. baumannii", "experiment": "MIC against A. baumannii, alone and in combination with colistine", "format": "cell-based"}}, "note": "Like-named read-outs stand apart in the source and are kept apart here."}
{"compound": "C[C@H]1COc2c(N3CCN(C)CC3)c(F)cc3c(=O)c(C(=O)O)cn1c23", "note": "[Levofloxacin, levofloxacin]", "values": [{"measurement": "MBIC", "setting": "[1]; strain MRSA 1, resistance profile Cip", "result": ">256", "unit": "mg/L"}, {"measurement": "MBIC", "setting": "[1]; strain MRSA 2, resistance profile Gen, Cip", "result": 128, "unit": "mg/L"}, {"measurement": "MIC", "setting": "[2]; MRSA, strain MRSA 1, resistance profile Cip", "result": 128, "unit": "µg/mL"}, {"measurement": "MIC", "setting": "[2]; strain MRSA 2, resistance profile Gen, Cip, read-out: MIC", "result": 64, "unit": "µg/mL"}]}
{"compound": "[Gold(III) 2-((diisopropylamino)(phenyl)phosphorothioyl)phenyl) (pirrolidin-1-dithiocarbamate)] hexafluorophosphate [Compound 2f]", "values": [{"measurement": "stability in the conditions of the biological activity assays", "setting": "[3]; CD3CN / ISOsensitest culture broth in D2O", "result": "stable"}, {"measurement": "31P NMR signal of the complex (stability)", "setting": "[3]; CD3CN / saline phosphate buffer (pH 7.4) in D2O, 37° C., three days", "result": "remained unaltered"}, {"measurement": "stability towards reducing agent (31P NMR)", "setting": "[3]; equimolar ascorbic acid (AsAc)", "result": "maintained its chemical integrity"}, {"measurement": "stability towards reducing agent (31P NMR)", "setting": "[3]; equimolar glutathione (GSH)", "result": "maintained its chemical integrity"}]}
{"compound": "colistine", "values": [{"measurement": "MIC", "setting": "A. baumannii; each antibiotic separately", "result": 64, "unit": "µg/mL"}, {"measurement": "MIC in combination", "setting": "A. baumannii; gold(III) complex and colistine used in combination", "result": 1, "unit": "µg/mL"}]}
